Data published in ChEMBL document CHEMBL5230116, “Recent developments of small molecules with anti-inflammatory activities for the treatment of acute lung injury” (Eur J Med Chem, 2020).

Legend:
[1] = target: T1, 72 kDa type IV collagenase (Homo sapiens, UniProt P08253); test: Inhibition of recombinant human MMP-2 using QF24 as substrate incubated for 3 hrs by spectrofluorometer assay
Neutrophil collagenase = Neutrophil collagenase (Homo sapiens, UniProt P22894); test: Inhibition of recombinant human MMP-8 using QF24 as substrate incubated for 3 hrs by spectrofluorometer assay
[2] = Inhibition of LPS induced IL-6 expression in ICR mouse peritoneal macrophage at 10 uM incubated for 30 mins followed by LPS stimulation measured after 24 hrs by ELISA assay relative to control; type: functional
[3] = Inhibition of LPS induced TNF-alpha expression in ICR mouse peritoneal macrophage at 10 uM incubated for 30 mins followed by LPS stimulation measured after 24 hrs by ELISA assay relative to control; type: functional
RAW264.7 = test: Inhibition of NO production in LPS stimulated mouse RAW264.7 cells incubated for 1 hr by Griess reagent based assay; type: functional, cell-based; details: RAW264.7, 1 h
[4] = Inhibition of IL-6 expression in LPS stimulated mouse RAW264.7 cells incubated for 1 hr by ELISA assay; type: functional, cell-based; details: RAW264.7, 1 h
[5] = Inhibition of TNF-alpha expression in LPS stimulated mouse RAW264.7 cells incubated for 1 hr by ELISA assay; type: functional, cell-based; details: RAW264.7, 1 h
[6] = target: T1, 72 kDa type IV collagenase; test: Inhibition of MMP-2 (unknown origin)
[7] = target: Matrix metalloproteinase-9 (Homo sapiens, UniProt P14780); test: Inhibition of MMP-9 (unknown origin)
[8] = Half life in rat at 3 mg/kg, po; type: ADME, organism-based; details: in vivo
[9] = Oral bioavailability in rat at 3 mg/kg; type: ADME, organism-based; details: in vivo

T1 sequence (P08253 whole entry): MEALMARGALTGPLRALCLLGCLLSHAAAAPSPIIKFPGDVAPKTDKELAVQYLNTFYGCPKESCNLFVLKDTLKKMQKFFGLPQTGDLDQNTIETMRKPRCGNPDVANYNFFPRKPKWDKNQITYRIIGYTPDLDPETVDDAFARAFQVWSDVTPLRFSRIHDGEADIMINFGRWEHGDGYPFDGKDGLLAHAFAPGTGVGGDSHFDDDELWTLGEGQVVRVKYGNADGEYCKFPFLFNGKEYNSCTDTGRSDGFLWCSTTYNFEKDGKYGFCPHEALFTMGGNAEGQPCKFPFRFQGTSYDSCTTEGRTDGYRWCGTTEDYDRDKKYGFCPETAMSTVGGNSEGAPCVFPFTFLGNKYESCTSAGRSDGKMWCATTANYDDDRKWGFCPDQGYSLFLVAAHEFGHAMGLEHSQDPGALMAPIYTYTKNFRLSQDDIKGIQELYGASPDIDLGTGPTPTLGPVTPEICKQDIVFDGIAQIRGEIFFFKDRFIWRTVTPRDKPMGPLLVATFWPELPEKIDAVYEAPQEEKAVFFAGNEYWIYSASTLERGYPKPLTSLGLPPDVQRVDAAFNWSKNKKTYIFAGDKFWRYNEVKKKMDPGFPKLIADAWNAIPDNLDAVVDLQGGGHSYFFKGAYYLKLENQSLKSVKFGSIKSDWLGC
Chain of Neutrophil collagenase (P22894 whole entry): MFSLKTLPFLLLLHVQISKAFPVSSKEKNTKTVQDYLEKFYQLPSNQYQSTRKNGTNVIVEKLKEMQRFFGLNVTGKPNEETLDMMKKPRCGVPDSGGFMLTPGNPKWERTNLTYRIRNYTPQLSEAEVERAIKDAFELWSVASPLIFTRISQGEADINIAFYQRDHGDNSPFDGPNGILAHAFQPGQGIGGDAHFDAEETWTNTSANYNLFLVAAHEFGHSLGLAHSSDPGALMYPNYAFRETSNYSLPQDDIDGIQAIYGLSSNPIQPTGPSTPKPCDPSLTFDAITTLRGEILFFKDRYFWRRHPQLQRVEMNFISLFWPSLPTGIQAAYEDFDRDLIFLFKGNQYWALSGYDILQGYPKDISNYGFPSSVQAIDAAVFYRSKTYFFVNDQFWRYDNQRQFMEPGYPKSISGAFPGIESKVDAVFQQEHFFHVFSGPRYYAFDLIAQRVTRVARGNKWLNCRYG
Chain of Matrix metalloproteinase-9 (P14780 whole entry): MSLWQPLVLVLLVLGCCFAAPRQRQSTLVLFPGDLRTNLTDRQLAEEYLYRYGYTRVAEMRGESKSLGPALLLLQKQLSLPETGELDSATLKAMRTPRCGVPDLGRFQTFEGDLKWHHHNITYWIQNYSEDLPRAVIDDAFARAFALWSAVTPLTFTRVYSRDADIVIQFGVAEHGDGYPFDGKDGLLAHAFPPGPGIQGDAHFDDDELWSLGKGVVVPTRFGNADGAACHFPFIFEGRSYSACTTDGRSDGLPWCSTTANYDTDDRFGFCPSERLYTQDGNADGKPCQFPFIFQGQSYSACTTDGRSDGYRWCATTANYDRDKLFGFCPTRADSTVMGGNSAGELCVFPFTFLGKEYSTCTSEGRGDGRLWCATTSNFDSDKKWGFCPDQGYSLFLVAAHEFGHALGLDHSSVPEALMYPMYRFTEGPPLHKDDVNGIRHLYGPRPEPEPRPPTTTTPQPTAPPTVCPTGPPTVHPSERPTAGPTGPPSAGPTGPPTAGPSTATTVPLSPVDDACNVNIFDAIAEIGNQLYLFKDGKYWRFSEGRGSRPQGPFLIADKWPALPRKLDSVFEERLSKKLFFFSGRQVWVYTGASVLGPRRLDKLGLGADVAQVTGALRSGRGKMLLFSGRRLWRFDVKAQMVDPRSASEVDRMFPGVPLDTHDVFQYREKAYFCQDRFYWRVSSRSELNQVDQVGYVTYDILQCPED

In the case of O=C(CCN1CCN(Cc2ccccc2)CC1)Nc1nc(-c2ccccc2)cs1, the IC50 [1] is reported as 10.2 µM and the IC50 (Neutrophil collagenase) is reported as 11.9 µM.
COc1cc(/C=C2\Cc3ccc(O)cc3C2=O)ccc1O showed an inhibition at 10 µM [2] of 69.3% and an inhibition at 10 µM [3] of 83.7%.
CCCc1nn(C)c2c(NCCCN3CCOCC3)nc(/C=C/c3cc(OC)c(OC)c(OC)c3)nc12 showed an IC50 (RAW264.7) of 2.64 µM, an IC50 [4] of 4.38 µM and an IC50 [5] of 5.63 µM.
CCCOc1cccc2c1C(=O)/C(=C/c1ccc(O)c(OC)c1)C2 showed an inhibition at 10 µM [2] of 84.9% and an inhibition at 10 µM [3] of 72%.
In the case of O=C(CN1CCN(c2ccccc2)CC1)Nc1nc(-c2ccc(F)cc2)cs1, the IC50 [1] is reported as 4.22 µM and the IC50 (Neutrophil collagenase) is reported as 2.34 µM.
For COc1cc(/C=C2\Cc3cc(OC)c(OC)cc3C2=O)ccc1O, the inhibition at 10 µM [2] was 81.4% and the inhibition at 10 µM [3] was 79.3%.
In the case of O=C1NC(=O)C(O)(CC(=O)c2ccc(NS(=O)(=O)c3ccc(C(F)(F)F)cc3)cc2)C(=O)N1, the IC50 [6] is reported as 0.00235 µM and the IC50 [7] is reported as 0.00824 µM.
For Cc1coc2c1C(=O)c1c3c-2ccc2c3c(n1Cc1ccccc1)C(=O)CC2(C)C, the half-life [8] was 4.05 h and the bioavailability [9] was 30.2%.
Cc1coc2c1C(=O)C(=O)c1c-2ccc2c1CCCC2(C)C [TANSHINONE IIA] showed a half-life [8] of 0.34 h and a bioavailability [9] of under 3.5%.
